# From publication PMC4604765, “Eye drop delivery of pigment epithelium-derived factor-34 promotes retinal ganglion cell neuroprotection and axon regeneration” (Molecular and Cellular Neurosciences, 2015)
# No end group written: not given here.
# How the values were obtained:
# [1] = tested on: βIII-tubulin+ retinal neurons; test: Neurite outgrowth in mixed adult rat retinal cultures (βIII-tubulin immunocytochemistry); format: cell-based
# From the text: For all in vitro experiments, adult 6–8-week-old female Sprague–Dawley rats weighing 170–220 g were used. Culture experiments included retinal cells treated with: (1), Neurobasal-A (NBA) alone (Control); and equimolar concentrations of (2), 2.16; (3) 5.4; (4), 10.8 and (5), 21.6 pM PEDF-34/-44; and (6), ciliary neurotrophic factor (CNTF: Peprotech, London, UK), as a positive control at an optimal neuroprotective/axogenic concentration of 440.5 pM, established by us previously ([Ahmed et al., 2009; Douglas et al., 2009]). […] All experiments were performed in triplicate and repeated on three independent occasions.
# Mixed adult rat retinal cultures containing enriched populations of retinal neurons, including RGCs, were prepared from 6–8-week-old adult female Sprague–Dawley rats, as described previously ([Ahmed et al., 2006b, 2009, 2010; Douglas et al., 2009; Vigneswara et al., 2013]). Briefly, retinal cells were dissociated using a Papain dissociation kit according to the manufacturer's instructions (Worthington Biochemicals, Lakewood, NJ, USA). Retinal cells were plated at a density of 125 × 10^3/well in poly-D-lysine and laminin pre-coated 8-well chamber slides and cultured in NBA supplemented with B27 supplement (all from Invitrogen, Paisley, UK), with appropriate treatments for 4 days at 37 °C and 5% CO2 before fixation in 4% paraformaldehyde diluted in PBS for immunocytochemistry, as described previously ([Vigneswara et al., 2013, 2014]).
# Fixed cells were washed in several changes of PBS before permeabilisation and blocking of non-specific antibody sites with PBS containing 3% bovine serum albumin (BSA) and 0.1% Triton X-100 (both from Sigma, Poole, UK). Cells were then incubated with monoclonal anti-βIII-tubulin antibody (1:200 dilution; Sigma) for 1 h at room temperature (RT) to detect retinal neurons and their neurites. Cells were then washed in several changes of PBS and incubated with Alexa 488 anti-mouse IgG (1:400 dilution; Invitrogen) for 1 h at RT. After washing in several changes of PBS and mounting in Vectamount containing DAPI (Vector Laboratories, Peterborough, UK), cells were then viewed using a Zeiss epi-fluorescent microscope equipped with an AxioCam HRc and Axiovision Image capture software (all from Zeiss, Hertfordshire, UK). Immunocytochemistry included controls with primary antibody omitted, to set background levels of nonspecific staining (not shown) before image capture.
# The mean number of βIII-tubulin^+ neurons surviving, with neurites and the mean neurite length were quantified as described by us previously ([Vigneswara et al., 2013, 2014]). Briefly, chamber slides were anonymised by a second investigator and βIII-tubulin^+ neuronal soma and neurites quantified in 9 quadrants/well using Axiovision software (Version 4.8; Zeiss) and ImagePro (Version 6.3; Media Cybernetics, Bethesda, MD, USA). Of the 125,000 cells/well plated, the total numbers of neurons in each experiment were determined by βIII-tubulin^+ immunocytochemistry after allowing 30 min for cells to adhere to glass culture slides. This determines the number of neurons plated/well and is used in each experiment to work out the proportion of surviving βIII-tubulin^+ neurons. Neurite outgrowth from at least 180 neurons/condition from the 9 wells was measured, except in control (NBA) cultures, in which a total of 108 neurons were measured.
# [2] = tested on: retinal ganglion cells (RGCs); test: RGC survival after optic nerve crush (FluroGold backfilling, retinal wholemounts); format: in vivo, rat; details: weekly intravitreal injection, 2.68 nM versus 1.88 nM, 21 days after ONC
# Procedure: In a separate set of experiments comprising the same treatment groups, 6 rats/treatment (i.e. 12 eyes/optic nerves/treatment) were used to evaluate RGC axon regeneration by immunostaining with growth-associated protein-43 (GAP-43) in the optic nerve.
# In further experiments, 12 rats (24 eyes/optic nerves)/treatment received 1.88 nM PEDF-34 eye drops daily. Six rats (12 eyes)/treatment were used to assess RGC survival at 21 days using FG backfilling, whilst the remaining 6 rats (12 eyes/optic nerves)/treatment were used to evaluate RGC axon regeneration at 21 days by GAP-43 immunohistochemistry. […]
# Nineteen days after ONC, FG (Cambridge Biosciences, Cambridge, UK) was injected into the optic nerve, between the lamina cribrosa and the ONC site ([Vigneswara et al., 2013, 2014]). […] The identity of individual retinae was anonymised by a second investigator before image capture using a Zeiss epifluorescent microscope and the number of FG^+ RGCs counted in ImagePro Version 6.0 (Media Cybernetics) from captured images of 12 rectangular areas, 3 from each quadrant, placed at radial distances from the centre of the optic disc of the inner (1/6 eccentricity), midperiphery (1/2 eccentricity) and outer retina (5/6 eccentricity). The mean densities of FG^+ RGCs/mm^2 for each retina were determined.
# [3] = 5.4 pM (peak), 4 days in culture
sequence,measurement,setting,value
DPFFKVPVNKLAAAVSNFGYDLYRVRSSTSPTTN [PEDF-34],mean neurite length,[1]; [3],211 ± 23 μm
same,mean proportion of βIII-tubulin+ neurons with neurites,[1]; [3],21 ± 2%
same,fold longer neurites than in CNTF cultures,[1]; PEDF-34 versus CNTF (440.5 pM),2.2 fold
same,fold more βIII-tubulin+ neurons with neurites than in CNTF cultures,[1]; PEDF-34 versus CNTF (440.5 pM),10.5 fold
same,fold longer neurites than in PEDF-44 cultures,[1]; PEDF-34 versus PEDF-44,1.7 fold
same,fold more βIII-tubulin+ neurons with neurites than in PEDF-44 cultures,[1]; PEDF-34 versus PEDF-44,2.3 fold
same,more neuritogenic than PEDF-44 in vitro,"[1]; PEDF-34 versus equimolar PEDF-44, retinal cultures",52%
same,fold longer neurites than in untreated cultures,[1]; PEDF-34 versus untreated,6.3 fold
same,fold more βIII-tubulin+ neurons with neurites than in untreated cultures,[1]; PEDF-34 versus untreated,21 fold
same,retinal neuron/RGC neuritogenesis/axogenesis compared to untreated controls,[1]; statement in discussion,Five-fold more
same,RGC survival on increasing the dose,[2],did not improve
